system: HepG2-A16-CD81EGFP cells; conditions: read-out: Tox_IC50; sheet 2nd round; HepG2 cytotoxicity

Structure (SMILES)	IC50
C[C@@H]1CN([C@@H](C)CO)C(=O)c2cccc(NC(=O)C3CC3)c2O[C@@H]1CN(C)C(=O)Nc1ccc(C(F)(F)F)cc1 [BRD-K19818397-001-01-8]	> 10 µM

same assay, conditions: sheet 2nd round; maximal inhibition in dose response

Structure (SMILES)	Tox_max_inhibition (%)
C[C@@H]1CN([C@@H](C)CO)C(=O)c2cccc(NC(=O)C3CC3)c2O[C@@H]1CN(C)C(=O)Nc1ccc(C(F)(F)F)cc1 [BRD-K19818397-001-01-8]	16%

system: Plasmodium berghei (Pb-Luc) exoerythrocytic-stage parasites; conditions: first series of dose-response columns; concentration 10; fraction of control

Structure (SMILES)	normalized signal at concentration 10
C[C@@H]1CN([C@@H](C)CO)C(=O)c2cccc(NC(=O)C3CC3)c2O[C@@H]1CN(C)C(=O)Nc1ccc(C(F)(F)F)cc1 [BRD-K19818397-001-01-8]	1.071

same assay, conditions: first series; concentration 0.000508053; fraction of control

Structure (SMILES)	normalized signal at concentration 0.000508053
C[C@@H]1CN([C@@H](C)CO)C(=O)c2cccc(NC(=O)C3CC3)c2O[C@@H]1CN(C)C(=O)Nc1ccc(C(F)(F)F)cc1 [BRD-K19818397-001-01-8]	1.034

same assay, conditions: first series; concentration 0.00152416; fraction of control

Structure (SMILES)	normalized signal at concentration 0.00152416
C[C@@H]1CN([C@@H](C)CO)C(=O)c2cccc(NC(=O)C3CC3)c2O[C@@H]1CN(C)C(=O)Nc1ccc(C(F)(F)F)cc1 [BRD-K19818397-001-01-8]	0.8006

same assay, conditions: first series; concentration 0.00457247; fraction of control

Structure (SMILES)	normalized signal at concentration 0.00457247
C[C@@H]1CN([C@@H](C)CO)C(=O)c2cccc(NC(=O)C3CC3)c2O[C@@H]1CN(C)C(=O)Nc1ccc(C(F)(F)F)cc1 [BRD-K19818397-001-01-8]	1.0648

same assay, conditions: first series; concentration 0.0137174; fraction of control

Structure (SMILES)	normalized signal at concentration 0.0137174
C[C@@H]1CN([C@@H](C)CO)C(=O)c2cccc(NC(=O)C3CC3)c2O[C@@H]1CN(C)C(=O)Nc1ccc(C(F)(F)F)cc1 [BRD-K19818397-001-01-8]	1.106

same assay, conditions: first series; concentration 0.0411523; fraction of control

Structure (SMILES)	normalized signal at concentration 0.0411523
C[C@@H]1CN([C@@H](C)CO)C(=O)c2cccc(NC(=O)C3CC3)c2O[C@@H]1CN(C)C(=O)Nc1ccc(C(F)(F)F)cc1 [BRD-K19818397-001-01-8]	1.032

same assay, conditions: first series; concentration 0.123457; fraction of control

Structure (SMILES)	normalized signal at concentration 0.123457
C[C@@H]1CN([C@@H](C)CO)C(=O)c2cccc(NC(=O)C3CC3)c2O[C@@H]1CN(C)C(=O)Nc1ccc(C(F)(F)F)cc1 [BRD-K19818397-001-01-8]	1.068

same assay, conditions: first series; concentration 0.37037; fraction of control

Structure (SMILES)	normalized signal at concentration 0.37037
C[C@@H]1CN([C@@H](C)CO)C(=O)c2cccc(NC(=O)C3CC3)c2O[C@@H]1CN(C)C(=O)Nc1ccc(C(F)(F)F)cc1 [BRD-K19818397-001-01-8]	0.8949

same assay, conditions: first series; concentration 1.11111; fraction of control

Structure (SMILES)	normalized signal at concentration 1.11111
C[C@@H]1CN([C@@H](C)CO)C(=O)c2cccc(NC(=O)C3CC3)c2O[C@@H]1CN(C)C(=O)Nc1ccc(C(F)(F)F)cc1 [BRD-K19818397-001-01-8]	0.9694

same assay, conditions: first series; concentration 3.33333; fraction of control

Structure (SMILES)	normalized signal at concentration 3.33333
C[C@@H]1CN([C@@H](C)CO)C(=O)c2cccc(NC(=O)C3CC3)c2O[C@@H]1CN(C)C(=O)Nc1ccc(C(F)(F)F)cc1 [BRD-K19818397-001-01-8]	1.103

same assay, conditions: read-out: PbLuc_IC50; sheet 2nd round; Broad compounds, dose response

Structure (SMILES)	IC50
C[C@@H]1CN([C@@H](C)CO)C(=O)c2cccc(NC(=O)C3CC3)c2O[C@@H]1CN(C)C(=O)Nc1ccc(C(F)(F)F)cc1 [BRD-K19818397-001-01-8]	> 10 µM

same assay, conditions: second series of dose-response columns; concentration 10; fraction of control

Structure (SMILES)	normalized signal at concentration 10
C[C@@H]1CN([C@@H](C)CO)C(=O)c2cccc(NC(=O)C3CC3)c2O[C@@H]1CN(C)C(=O)Nc1ccc(C(F)(F)F)cc1 [BRD-K19818397-001-01-8]	1.03

same assay, conditions: second series; concentration 0.000508053; fraction of control

Structure (SMILES)	normalized signal at concentration 0.000508053
C[C@@H]1CN([C@@H](C)CO)C(=O)c2cccc(NC(=O)C3CC3)c2O[C@@H]1CN(C)C(=O)Nc1ccc(C(F)(F)F)cc1 [BRD-K19818397-001-01-8]	1.064

same assay, conditions: second series; concentration 0.00152416; fraction of control

Structure (SMILES)	normalized signal at concentration 0.00152416
C[C@@H]1CN([C@@H](C)CO)C(=O)c2cccc(NC(=O)C3CC3)c2O[C@@H]1CN(C)C(=O)Nc1ccc(C(F)(F)F)cc1 [BRD-K19818397-001-01-8]	1.02

same assay, conditions: second series; concentration 0.00457247; fraction of control

Structure (SMILES)	normalized signal at concentration 0.00457247
C[C@@H]1CN([C@@H](C)CO)C(=O)c2cccc(NC(=O)C3CC3)c2O[C@@H]1CN(C)C(=O)Nc1ccc(C(F)(F)F)cc1 [BRD-K19818397-001-01-8]	1.098

same assay, conditions: second series; concentration 0.0137174; fraction of control

Structure (SMILES)	normalized signal at concentration 0.0137174
C[C@@H]1CN([C@@H](C)CO)C(=O)c2cccc(NC(=O)C3CC3)c2O[C@@H]1CN(C)C(=O)Nc1ccc(C(F)(F)F)cc1 [BRD-K19818397-001-01-8]	0.9383

same assay, conditions: second series; concentration 0.0411523; fraction of control

Structure (SMILES)	normalized signal at concentration 0.0411523
C[C@@H]1CN([C@@H](C)CO)C(=O)c2cccc(NC(=O)C3CC3)c2O[C@@H]1CN(C)C(=O)Nc1ccc(C(F)(F)F)cc1 [BRD-K19818397-001-01-8]	0.9903

same assay, conditions: second series; concentration 0.123457; fraction of control

Structure (SMILES)	normalized signal at concentration 0.123457
C[C@@H]1CN([C@@H](C)CO)C(=O)c2cccc(NC(=O)C3CC3)c2O[C@@H]1CN(C)C(=O)Nc1ccc(C(F)(F)F)cc1 [BRD-K19818397-001-01-8]	1.126

same assay, conditions: second series; concentration 0.37037; fraction of control

Structure (SMILES)	normalized signal at concentration 0.37037
C[C@@H]1CN([C@@H](C)CO)C(=O)c2cccc(NC(=O)C3CC3)c2O[C@@H]1CN(C)C(=O)Nc1ccc(C(F)(F)F)cc1 [BRD-K19818397-001-01-8]	1.0101

same assay, conditions: second series; concentration 1.11111; fraction of control

Structure (SMILES)	normalized signal at concentration 1.11111
C[C@@H]1CN([C@@H](C)CO)C(=O)c2cccc(NC(=O)C3CC3)c2O[C@@H]1CN(C)C(=O)Nc1ccc(C(F)(F)F)cc1 [BRD-K19818397-001-01-8]	1.172

same assay, conditions: second series; concentration 3.33333; fraction of control

Structure (SMILES)	normalized signal at concentration 3.33333
C[C@@H]1CN([C@@H](C)CO)C(=O)c2cccc(NC(=O)C3CC3)c2O[C@@H]1CN(C)C(=O)Nc1ccc(C(F)(F)F)cc1 [BRD-K19818397-001-01-8]	1.008

same assay, conditions: sheet 2nd round; maximal inhibition in dose response

Structure (SMILES)	PbLuc_max_inhibition (%)
C[C@@H]1CN([C@@H](C)CO)C(=O)c2cccc(NC(=O)C3CC3)c2O[C@@H]1CN(C)C(=O)Nc1ccc(C(F)(F)F)cc1 [BRD-K19818397-001-01-8]	20%
